Laboratory results reported in paper PMC9481151, “Discovery of new symmetrical and asymmetrical nitrile-containing 1,4-dihydropyridine derivatives as dual kinases and P-glycoprotein inhibitors: synthesis, in vitro assays, and in silico studies” (Journal of Enzyme Inhibition and Medicinal Chemistry, 2022).
Values joined by “and” are separate entries in the source; they are usually repeats but may differ in a detail not shown here. Equal values may be shown once.

Assays:
[1] = tested on: Staphylococcus aureus; experiment: Agar well diffusion method
[2] = tested on: SN12C; experiment: NCI single dose (10 µM) SRB screen; assay type: cell-based, human; details: renal cancer, 48 h
[3] = tested on: CAKI-1; experiment: NCI single dose (10 µM) SRB screen; assay type: cell-based, human; details: renal cancer, 48 h
[4] = tested on: OVCAR-5; experiment: NCI single dose (10 µM) SRB screen; assay type: cell-based, human; details: ovarian cancer, 48 h
[5] = tested on: NCI-H460; experiment: NCI single dose (10 µM) SRB screen; assay type: cell-based, human; details: non-small cell lung cancer, 48 h
[6] = tested on: SK-MEL-2; experiment: NCI single dose (10 µM) SRB screen; assay type: cell-based, human; details: melanoma, 48 h
[7] = tested on: COLO 205; experiment: NCI single dose (10 µM) SRB screen; assay type: cell-based, human; details: colon cancer, 48 h
[8] = tested on: NCI-H226; experiment: NCI single dose (10 µM) SRB screen; assay type: cell-based, human; details: non-small cell lung cancer, 48 h
[9] = tested on: KM12; experiment: NCI single dose (10 µM) SRB screen; assay type: cell-based, human; details: colon cancer, 48 h
[10] = tested on: SK-OV-3; experiment: NCI single dose (10 µM) SRB screen; assay type: cell-based, human; details: ovarian cancer, 48 h
[11] = tested on: HS578T; experiment: NCI single dose (10 µM) SRB screen; assay type: cell-based, human; details: breast cancer, 48 h
[12] = tested on: Candida albicans; experiment: Agar well diffusion method
[13] = tested on: NCI-H522; experiment: NCI single dose (10 µM) SRB screen; assay type: cell-based, human; details: non-small cell lung cancer, 48 h
[14] = tested on: SK-MEL-28; experiment: NCI single dose (10 µM) SRB screen; assay type: cell-based, human; details: melanoma, 48 h
[15] = tested on: CCRF-CEM; experiment: NCI single dose (10 µM) SRB screen; assay type: cell-based, human; details: leukaemia, 48 h
[16] = tested on: HCT-116; experiment: NCI single dose (10 µM) SRB screen; assay type: cell-based, human; details: colon cancer, 48 h
[17] = tested on: UO-31; experiment: NCI single dose (10 µM) SRB screen; assay type: cell-based, human; details: renal cancer, 48 h
[18] = tested on: HCC-2998; experiment: NCI single dose (10 µM) SRB screen; assay type: cell-based, human; details: colon cancer, 48 h
[19] = tested on: Aspergillus flavus; experiment: Agar well diffusion method
[20] = tested on: ACHN; experiment: NCI single dose (10 µM) SRB screen; assay type: cell-based, human; details: renal cancer, 48 h
[21] = tested on: IGROV1; experiment: NCI single dose (10 µM) SRB screen; assay type: cell-based, human; details: ovarian cancer, 48 h
[22] = tested on: NCI-H322M; experiment: NCI single dose (10 µM) SRB screen; assay type: cell-based; details: non-small cell lung cancer, 48 h
[23] = tested on: SNB-19; experiment: NCI single dose (10 µM) SRB screen; assay type: cell-based, human; details: CNS cancer, 48 h
[24] = tested on: MCF7; experiment: NCI single dose (10 µM) SRB screen; assay type: cell-based, human; details: breast cancer, 48 h
[25] = tested on: MDA-MB-468; experiment: NCI single dose (10 µM) SRB screen; assay type: cell-based, human; details: breast cancer, 48 h
[26] = tested on: TK-10; experiment: NCI single dose (10 µM) SRB screen; assay type: cell-based, human; details: renal cancer, 48 h
[27] = tested on: Pseudomonas aeruginosa; experiment: Agar well diffusion method
[28] = tested on: Escherichia coli; experiment: Agar well diffusion method
[29] = tested on: UACC-257; experiment: NCI single dose (10 µM) SRB screen; assay type: cell-based, human; details: melanoma, 48 h
[30] = tested on: Bacillus subtilis; experiment: Agar well diffusion method
[31] = tested on: NCI-H23; experiment: NCI single dose (10 µM) SRB screen; assay type: cell-based, human; details: non-small cell lung cancer, 48 h
[32] = tested on: HOP-92; experiment: NCI single dose (10 µM) SRB screen; assay type: cell-based, human; details: non-small cell lung cancer, 48 h
[33] = tested on: BT-549; experiment: NCI single dose (10 µM) SRB screen; assay type: cell-based, human; details: breast cancer, 48 h
[34] = tested on: SNB-75; experiment: NCI single dose (10 µM) SRB screen; assay type: cell-based, human; details: CNS cancer, 48 h
[35] = tested on: 786-0; experiment: NCI single dose (10 µM) SRB screen; assay type: cell-based, human; details: renal cancer, 48 h
[36] = tested on: OVCAR-4; experiment: NCI single dose (10 µM) SRB screen; assay type: cell-based, human; details: ovarian cancer, 48 h
[37] = tested on: OVCAR-3; experiment: NCI single dose (10 µM) SRB screen; assay type: cell-based, human; details: ovarian cancer, 48 h
[38] = tested on: UACC-62; experiment: NCI single dose (10 µM) SRB screen; assay type: cell-based, human; details: melanoma, 48 h
[39] = tested on: HCT-15; experiment: NCI single dose (10 µM) SRB screen; assay type: cell-based, human; details: colon cancer, 48 h
[40] = tested on: RXF 393; experiment: NCI single dose (10 µM) SRB screen; assay type: cell-based, human; details: renal cancer, 48 h
[41] = tested on: RPMI-8226; experiment: NCI single dose (10 µM) SRB screen; assay type: cell-based, human; details: leukaemia, 48 h
[42] = tested on: T-47D; experiment: NCI single dose (10 µM) SRB screen; assay type: cell-based, human; details: breast cancer, 48 h
[43] = tested on: NCI 60 cancer cell lines; experiment: NCI single dose (10 µM) SRB screen, mean over panel; assay type: cell-based, human; details: mean over 60 cell lines, 48 h
[44] = tested on: U251; experiment: NCI single dose (10 µM) SRB screen; assay type: cell-based, human; details: CNS cancer, 48 h
[45] = tested on: HL-60(TB); experiment: NCI single dose (10 µM) SRB screen; assay type: cell-based, human; details: leukaemia, 48 h
[46] = tested on: M14; experiment: NCI single dose (10 µM) SRB screen; assay type: cell-based, human; details: melanoma, 48 h
[47] = tested on: K-562; experiment: NCI single dose (10 µM) SRB screen; assay type: cell-based, human; details: leukaemia, 48 h
[48] = tested on: SR; experiment: NCI single dose (10 µM) SRB screen; assay type: cell-based, human; details: leukaemia, 48 h
[49] = tested on: SF-295; experiment: NCI single dose (10 µM) SRB screen; assay type: cell-based, human; details: CNS cancer, 48 h
[50] = tested on: MALME-3M; experiment: NCI single dose (10 µM) SRB screen; assay type: cell-based, human; details: melanoma, 48 h
[51] = tested on: PC-3; experiment: NCI single dose (10 µM) SRB screen; assay type: cell-based, human; details: prostate cancer, 48 h

CCOC(=O)C1=C(C)NC(C)=C(C(=O)OC)C1c1cccc(C#N)c1 (racemic) [Compound 2g, (±)-3-Ethyl 5-methyl 4-(3-cyanophenyl)-2,6-dimethyl-1,4-dihydropyridine-3,5-dicarboxylate]
10%: GI% HS578T [11]
22 mm: zone of inhibition at 1000 µg/mL ([1]; Staphylococcus aureus, 24 h, read-out: Diameter of inhibition zone, S. aureus)
82% and 82.6%: % activity index, B. subtilis ([30]; relative to ciprofloxacin)
91% and 91.7%: % activity index, S. aureus ([1]; relative to ciprofloxacin)
19 mm: zone of inhibition at 1000 µg/mL ([28]; Escherichia coli, 24 h, read-out: Diameter of inhibition zone, E. coli) | zone of inhibition at 1000 µg/mL ([30]; Bacillus subtilis, 24 h, read-out: Diameter of inhibition zone, B. subtilis)
−1%: Mean GI% [43]
24 mm: zone of inhibition at 1000 µg/mL ([19]; Aspergillus flavus, 24 h, read-out: Diameter of inhibition zone, A. flavus)
11%: GI% MCF7 [24]
21 mm: zone of inhibition at 1000 µg/mL ([27]; Pseudomonas aeruginosa, 24 h, read-out: Diameter of inhibition zone, P. aeruginosa)
– (Only GI% ≥ 10 are shown): GI% SN12C [2] | GI% CAKI-1 [3] | GI% OVCAR-5 [4] | GI% NCI-H460 [5] | GI% SK-MEL-2 [6] | GI% COLO 205 [7] | GI% NCI-H226 [8] | GI% KM12 [9] | GI% SK-OV-3 [10] | GI% NCI-H522 [13] | GI% SK-MEL-28 [14] | GI% CCRF-CEM [15] | GI% HCT-116 [16] | GI% UO-31 [17] | GI% HCC-2998 [18] | GI% ACHN [20] | GI% IGROV1 [21] | GI% NCI-H322M [22] | GI% SNB-19 [23] | GI% MDA-MB-468 [25] | GI% TK-10 [26] | GI% UACC-257 [29] | GI% NCI-H23 [31] | GI% HOP-92 [32] | GI% BT-549 [33] | GI% SNB-75 [34] | GI% 786-0 [35] | GI% OVCAR-4 [36] | GI% OVCAR-3 [37] | GI% UACC-62 [38] | GI% HCT-15 [39] | GI% RXF 393 [40] | GI% RPMI-8226 [41] | GI% T-47D [42] | GI% U251 [44] | GI% HL-60(TB) [45] | GI% M14 [46] | GI% K-562 [47] | GI% SF-295 [49] | GI% MALME-3M [50] | GI% PC-3 [51]
23 mm: zone of inhibition at 1000 µg/mL ([12]; Candida albicans, 24 h, read-out: Diameter of inhibition zone, C. albicans)
96%: % activity index, A. flavus ([19]; relative to clotrimazole)
91% and 91.3%: % activity index, P. aeruginosa ([27]; relative to ciprofloxacin)
73% and 73.1%: % activity index, E. coli ([28]; relative to ciprofloxacin)
85% and 85.2%: % activity index, C. albicans ([12]; relative to clotrimazole)
14%: GI% SR [48]
